Assay results from patent US6974794B1, “Hemoglobin-antioxidant conjugates” (Hemosol LP, priority 1999, dated 2005).

Key:
erythrocytes = assay: Hemolysis of erythrocytes mediated by peroxyl radicals (AAPH); protection of RBCs against lysis; type: cell-based; conditions: for AUC, % of control: relative to the corresponding control without Trolox, CO-ligated
Procedure: Blood was collected into heparinized tubes and erythrocytes were separated by centrifugation and washed 3 times with 10 volumes of PBS, pH 7.4. During the last washing, erythrocytes were centrifuged at 1000×g for 10 minutes to obtain a consistently packed cell preparation. The assay for hemolysis mediated by peroxyl radicals was conducted by a modified method of Miki et al.,(M. Miki, H. Tamai, M. Mino, Y. Yamamoto and E. Niki., Arch. Biochem. Biophys. 258:373-380 (1987)). Equal volumes of a 30% suspension of fresh erythrocytes in PBS pH 7.4, test sample, and 300 mM 2,2;-azo-bis(2-amidinopropane dihydrochloride) (AAPH, a radical generator) were combined in order. Mixtures were prepared under CO gas and test hemoglobin concentration in the RBC assay suspension was 12-13 mg/ml. Mixtures were held at 37° C., and aliquots were diluted 20-fold in PBS and centrifuged at 1000×g for 10 minutes. As a measure of Hb released due to RBC lysis, the absorbances of supernatants were measured at 540 nm after conversion of all Hb to CN-metHb according to the method of Tentori (Meth. Enzymology 75:707 (1981)). Supernatant Hb levels were corrected for Hb added in the test samples.
The results for two products are presented graphically in FIG. 1, a plot of relative RBC lysis against time for the various products. Products analyzed were prepared as described for reaction #6 (Hb-Trolox B) and reaction #7 (Hb-Trolox A) in Table 1 of Example 1. […] Relative protection was also determined by comparison of areas under the curves (AUC) obtained by plotting RBC lysate absorbance versus time. AUC is determined by the time of onset, rate, and overall extend of RBC lysis. Lower AUC values indicate greater protection of RBCs against lysis.
Using the method described in Example 2, the anti-oxidant activities of the two conjugates were measured. Samples were CO-ligated and concentration of the conjugates and controls in the RBC assay suspension was 12 mg/mL.
Using the method described in Example 1, the anti-oxidant activity of the polyOR-Hb-TX was measured. Products tested included oxygen and CO-ligated polyOR-Hb (no treatment with TX or EDC), CO-ligated product reserved prior to oxygenation as described above, and oxygenated product. All products were present in the RBC lysis assay suspension at 11.7 mg/mL.
Using the method described in Example 1, the antioxidant activities of the polyOR-Hb-TX products prepared under deoxy conditions (Example 8) and CO conditions (Example 6) were measured. Samples were CO-ligated and concentration of the conjugates and controls in the RBC assay suspension was 12 mg/mL. An equal concentration of polyOR-Hb, as well as two concentrations of Trolox alone representing 1× and 0.5× its solubility limit in the test solution, were evaluated.

conscious rat = assay: Hemodynamic effect following 10% topload infusion in conscious rat; type: in vivo; conditions: for Pre-infusion HR / baseline MAP prior to infusion: conscious Sprague-Dawley rat, before infusion; for baseline MAP prior to infusion: four animals per group; for HR after infusion / MAP following infusion: 10% topload infusion of 7.7 g/dL solution in lactated Ringer's
Procedure: Male Sprague-Dawley rats (250-350 g) were anesthetized with isoflurane on the day of the experiment. The right femoral artery and vein were cannulated. After 1.5 hour recovery from surgery, conscious animals residing in a metabolic cages were infused with either of two solutions: oxygenated polyOR-TX prepared in Example 6 or polyOR-Hb (no TX-EDC treatment; both solutions were 7.7 g/dL in lactated Ringer's solution). Infusion volume was equal to 10% of the animal's estimated blood volume. Mean arterial blood pressure (MAP) and heart rate (HR) were recorded 30 minutes prior to infusion to establish baseline values, during infusion and for 2 hours following infusion (FIGS. 3 and 4). Four animals were tested in each of the two groups. The baseline MAP prior to infusion was 101±4 mm Hg (polyOR-Hb) and 110±3 mm Hg (polyOR-Hb-TX). […] Pre-infusion HR were 407±17 and 394±17 beats per minute (bpm) in the polyOR-Hb and polyOR-Hb-TX groups, respectively.

[1] = P50 measured with a Hemox-Analyzer; conditions: 37° C.
Procedure: Trolox was conjugated to polyOR-Hb under deoxy conditions to prepare a product with a high P50, more suitable for use as an HBOC. PolyOR-Hb and MES buffer were deoxygenated by standard means. 0.78 g Trolox was reacted with 0.60 g EDC in 4 mL of acetonitrile for 10-20 minutes at room temperature. This solution was added to 2.04 g polyOR-Hb in 200 mL 120 mM MES pH 7.0. Two identical additions were made after 4 and 21 hours. At 27 hours following the first addition, the reaction mixture was charged with CO gas, filtered, concentrated and dialyzed extensively against PBS.

[2] = Table 7, CO-ligated samples, 12 mg/mL in RBC assay suspension
[3] = Table 4, hemoglobin 0.20 mM (12-13 mg/ml) in RBC assay suspension, under CO, 37° C., bound Trolox 0.32 mM (A), 0.45 mM (B), lower AUC = greater protection
[4] = Table 8, 11.7 mg/mL in RBC lysis assay suspension

Compound: 1× Control: control product: polyOR-Hb reacted with EDC alone, no Trolox added, single addition
- AUC relative to AAPH control (%) (erythrocytes; [2]): 83%

Compound: 1× TX-EDC (Reaction A): polyOR-Hb conjugated with Trolox by a single addition of Trolox/EDC
- AUC relative to AAPH control (%) (erythrocytes; [2]): 27%
- AUC, % of control (erythrocytes; 12 mg/mL): 33%

Compound: 3× Control: control product: polyOR-Hb reacted with EDC alone, no Trolox added, three additions
- AUC relative to AAPH control (%) (erythrocytes; [2]): 69%

Compound: 3× TX-EDC (Reaction B): polyOR-Hb conjugated with Trolox by three additions of Trolox/EDC
- AUC, % of control (erythrocytes; 12 mg/mL): 3%

Compound: Cc1c(C)c2c(c(C)c1O)CCC(C)(C(=O)O)O2 (centres unmarked) [Free Trolox, 2,5,7,8-tetramethyl-2-carboxy-chroman-6-ol]
- AUC relative to AAPH control (%) (erythrocytes; Table 4, Trolox 0.50 mM, no hemoglobin): 88%
- AUC relative to AAPH control (%) (erythrocytes; Table 9, Trolox alone 0.26 mM (0.5× its solubility limit)): 87%
- AUC relative to AAPH control (%) (erythrocytes; Table 9, Trolox alone 0.52 mM (1× its solubility limit)): 70%

Compound: Free Hb (A): free (control) hemoglobin; product of the control reaction corresponding to Hb-Trolox A, no TX-EDC added
- AUC relative to AAPH control (%) (erythrocytes; [3]): 39%

Compound: Free Hb (B): free (control) hemoglobin; product of the control reaction corresponding to Hb-Trolox B, no TX-EDC added
- AUC relative to AAPH control (%) (erythrocytes; [3]): 35%

Compound: PolyOR-Hb (CO form): CO-ligated polyOR-Hb, no treatment with TX or EDC
- AUC relative to AAPH control (%) (erythrocytes; [4]): 47%

Compound: PolyOR-Hb (Oxy form): oxygen-ligated polyOR-Hb, no treatment with TX or EDC
- AUC relative to AAPH control (%) (erythrocytes; [4]): 39%

Compound: PolyOR-Hb-TX (CO form): CO-ligated product of Example 6 reserved prior to oxygenation
- AUC relative to AAPH control (%) (erythrocytes; [4]): 6%

Compound: PolyOR-Hb-TX (Oxy form): oxygenated product of Example 6
- AUC relative to AAPH control (%) (erythrocytes; [4]): 15%

Compound: PolyOR-Hb-TX (from Example 6): Trolox conjugate of o-raffinose polymerized hemoglobin, large scale, prepared under CO conditions
- Pre-infusion HR (conscious rat): 394±17 bpm
- baseline MAP prior to infusion (conscious rat): 110±3 mm Hg
- HR after infusion (conscious rat; conscious rat): 316±10 bpm
- MAP following infusion (conscious rat; conscious rat): 151±1 mm Hg
- Hemodynamic properties compared with polyOR-Hb (conscious rat; conscious rat, 10% topload infusion, result in words): did not alter the hemodynamic properties
- AUC relative to AAPH control (%) (erythrocytes; Table 9, CO form, 12 mg/mL): 0%
- P50 [1]: 16 mm Hg

Compound: PolyOR-Hb-TX (from Example 8): Trolox conjugated to polyOR-Hb under deoxy conditions
- AUC relative to AAPH control (%) (erythrocytes; Table 9, CO form, 12 mg/mL): 3%
- P50 [1]: 40 mm Hg

Compound: PolyOR-Hb: o-raffinose cross-linked / polymerized hemoglobin, no treatment with TX or EDC [reference compound]
- Pre-infusion HR (conscious rat): 407±17 bpm
- baseline MAP prior to infusion (conscious rat): 101±4 mm Hg
- HR after infusion (conscious rat; conscious rat): 345±16 bpm
- MAP following infusion (conscious rat; conscious rat): 142±7 mm Hg
- AUC relative to AAPH control (%) (erythrocytes; Table 9, CO form, 12 mg/mL): 28%
- P50 [1]: 41 mm Hg
